Source: patent US10227324B2 (Shanghai Haiyan Pharmaceutical Technology Co., Ltd., priority 2014, dated 2019)

Tested on: NIH3T3 cells
Test: Cytotoxicity by MTT assay, NIH3T3
Assay type: cell-based
Settings: Mus musculus, NIH3T3, 72 h, cytotoxicity class, read-out: NIH3T3 cell (IC50/nM)

Structure (SMILES)	IC50 [nM]
CS(=O)(=O)C1(c2cc(-c3cnc(N)cc3C(F)(F)F)nc(N3CCOCC3)n2)CCCC1 [Compound S-10]	1000 to 3000
CC(C)S(=O)(=O)C1(c2cc(-c3cnc(N)cc3C(F)(F)F)nc(N3CCOCC3)n2)CCC1 [Compound S-19]	1000 to 3000
Nc1cc(C(F)(F)F)c(-c2cc(C3(S(=O)(=O)c4ccccc4)CCC3)nc(N3CCOCC3)n2)cn1 [Compound S-20]	1000 to 3000
